Measured values taken from patent US9625448B2, “Double caged GABA compounds, bis-CNB-GABA” (The Trustees of Princeton University, priority 2014, dated 2017).
Where two headings read alike, the source gives them in different places.

How the values were obtained:
[1] = system: GABAA receptors; assay: Monosynaptic IPSC, whole-cell patch clamp of dentate granule cells of rat hippocampal slices (Molnár & Nadler, 2000); assay type: cell-based
Procedure: FIGS. 25A-25B illustrate CNB-GABA depressed in a concentration-dependent manner the monosynaptic IPSC evoked by stimulation of the molecular layer as was observed by Molnár & Nadler, 2000. Referring to FIGS. 2A-25B, stimuli were delivered every 30 s. […] FIG. 25B illustrates cumulative concentration-response curve. Referring to FIG. 25B, the IC for CNB-GABA was essentially the same in the absence (28±9 mM, mean±S.D., n=5) and presence (32±13 mM, mean±S.D., n=4) of the GABAB receptor antagonist CGP 55845A. (Molnár & Nadler, 2000 European Journal of Pharmacology, 391, 255-262, which is incorporated herein by reference as if fully set forth).
FIG. 26 illustrates whole-cell patch clamp recordings from dentate granule cells of rat hippocampal slices reported by Molnár & Nadler, 2000. […] Holding potential of −80 mV. (Molnár & Nadler, 2000 European Journal of Pharmacology, 391, 255-262, which is incorporated herein by reference as if fully set forth, which is incorporated herein by reference as if fully set forth). […] FIG. 27 illustrates summary of the amplitudes of the current evoked by puff of 100 μM GABA and caged compounds around the soma reported by Matsuzaki et al., 2010. The amplitude was normalized to the mean current that was induced by GABA application alone. Left panel illustrates control (n=7); +10 mM CNI-GABA (n=7). […]

[2] = system: dentate granule cells; design: dose or concentration left out as unconfirmed; settings: holding potential −80 mV; cited from earlier work
[3] = cited from earlier work
[4] = Gee et al., 1994; cited from earlier work
[5] = physchem; assay type: physicochemical; settings: pH 7, aqueous buffer, thermodynamic from solid
From the text: Solubility data was important to obtain before attempting to use the compound in neural tissue. This was accomplished by dissolving a known amount of bis-CNB-GABA in pH 7.0 phosphate buffer solution.

Row | Compound | concentration required to generate 33% reduction in response [1] [µM] | IC33 ([1]; Table 1, calculated, q=0.33, in mM) | effect on EPSC evoked by stimulation of the perforant path [2] | known quantum yield (QY) of standard ([3]; from Invitrogen) | quantum yield ([3]; literature values) | solubility [4] | solubility [5] [mM]
1 | NCCCC(=O)OC(C(=O)O)c1ccccc1[N+](=O)[O-] (stereo not shown) [mono-CNB-GABA] | 14 | 0.014 | did not significantly affect | 0.16 | 0.14 | over 50 mM | 
2 | O=C(CCCNC(C(=O)O)c1ccccc1[N+](=O)[O-])OC(C(=O)O)c1ccccc1[N+](=O)[O-] (stereo not shown) [bis-CNB-GABA, 2-((4-(Carboxy(2-nitrophenyl)methoxy)-4-oxobutyl)amino)-2-(2-nitrophenyl)acetic acid] |  |  |  |  |  |  | ≤ 17
